ChEMBL document CHEMBL2074412, “Cloning of the human kidney PAH transporter: narrow substrate specificity and regulation by protein kinase C” (Am J Physiol, 1999)

Columns and labels:
Type in all cases: functional, cell-based
[1] = molecular target: T1, Solute carrier family 22 member 6 (Homo sapiens, UniProt Q4U2R8); assay: TP_TRANSPORTER: uptake in OAT1-expressing HeLa cells
T1 sequence (Q4U2R8 whole entry): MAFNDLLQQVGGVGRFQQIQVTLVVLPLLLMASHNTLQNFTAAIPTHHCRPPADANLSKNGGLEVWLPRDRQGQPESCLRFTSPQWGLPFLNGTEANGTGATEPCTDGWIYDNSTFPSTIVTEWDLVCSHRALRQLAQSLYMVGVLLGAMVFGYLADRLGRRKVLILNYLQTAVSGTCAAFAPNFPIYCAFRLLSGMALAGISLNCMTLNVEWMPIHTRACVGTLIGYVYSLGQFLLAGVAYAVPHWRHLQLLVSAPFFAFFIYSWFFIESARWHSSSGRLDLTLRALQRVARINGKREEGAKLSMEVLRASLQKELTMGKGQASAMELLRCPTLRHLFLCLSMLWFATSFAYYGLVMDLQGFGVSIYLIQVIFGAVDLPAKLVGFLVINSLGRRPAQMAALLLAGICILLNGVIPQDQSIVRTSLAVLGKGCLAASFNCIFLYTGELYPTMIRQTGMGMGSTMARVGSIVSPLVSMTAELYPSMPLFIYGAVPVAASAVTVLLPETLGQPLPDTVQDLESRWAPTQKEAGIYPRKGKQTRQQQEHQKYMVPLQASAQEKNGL

[2] = molecular target: T1, Solute carrier family 22 member 6; assay: TP_TRANSPORTER: inhibition of PAH uptake (alpha,-KG: 200 uM) in OAT1-expressing HeLa cells
[3] = molecular target: T1, Solute carrier family 22 member 6; assay: TP_TRANSPORTER: inhibition of PAH uptake (Anandamide: 100 uM) in OAT1-expressing HeLa cells
[4] = molecular target: T1, Solute carrier family 22 member 6; assay: TP_TRANSPORTER: inhibition of PAH uptake (PAH: 0.4 uM, Phenylbutazone: 200 uM) in OAT1-expressing HeLa cells
[5] = molecular target: T1, Solute carrier family 22 member 6; assay: TP_TRANSPORTER: inhibition of PAH uptake (Furosemide: 200 uM) in OAT1-expressing HeLa cells
[6] = molecular target: T1, Solute carrier family 22 member 6; assay: TP_TRANSPORTER: inhibition of PAH uptake (Indomethacin: 200 uM) in OAT1-expressing HeLa cells

Q: With `O=C(O)CCC(=O)C(=O)O` [ALPHA-KETOGLUTARIC ACID] as the compound, how does the Activity [1] read?
A: Its Activity is “substrate [+]”.

Q: And the Activity [2]?
A: The Activity was “inhibitor [(at a rough estimate) 35 % of control]”.

Q: Which Activity [3] does the source give for `CCCCC/C=C\C/C=C\C/C=C\C/C=C\CCCC(=O)NCCO` [ANANDAMIDE] here?
A: Its Activity is “is not an inhibitor [-]”.

Q: For `O=C1OC2(c3ccc(O)cc3Oc3cc(O)ccc32)c2ccccc21` [FLUORESCEIN], which Activity [4] is on record?
A: The Activity was “inhibitor [(at a rough estimate) 20 % of control]”.

Q: With `NS(=O)(=O)c1cc(C(=O)O)c(NCc2ccco2)cc1Cl` [FUROSEMIDE] as the compound, how does the Activity [5] read?
A: Its Activity is “inhibitor [(at a rough estimate) 50 % of control]”.

Q: For `COc1ccc2c(c1)c(CC(=O)O)c(C)n2C(=O)c1ccc(Cl)cc1` [INDOMETHACIN], which Activity [6] is on record?
A: The Activity was “inhibitor [(at a rough estimate) 20 % of control]”.
